Experimental data taken from patent US5506239A, “Carbostyril derivative and platelets aggregation inhibitory agent” (Otsuka Pharmaceutical Co., Ltd., priority 1991, dated 1996).

Experiments:
platelets [1] = experiment: Platelets aggregation inhibitory activity (method of Born et al.), collagen-induced, human PRP (Pharmacological Test I); assay type: cell-based, man; conditions: Homo sapiens, Platelet, 20 μg/ml collagen, 37° C., read-out: IC50 Collagen (50% platelets aggregation inhibition)
Description: (§1) The platelets aggregation inhibitory activity of each test compound was measured by the method of Born et al. [J. Physiol., London, 162, 67 (1962)], using Platelets Aggregation Tracer manufactured by Nikoh Bioscience Co., Ltd.
(§2) 9 volumes of a blood collected from person was mixed with 1 volume of a 3.8% aqueous sodium citrate solution. Part of the mixture was subjected to centrifugation at 1,100 rpm for 10 minutes to obtain a platelet rich plasma (PRP). The remainder of the mixture was also subjected to centrifugation at 3,000 rpm for 10 minutes to obtain a platelet poor plasma (PPP).
(§3) The number of platelets in the PRP was measured using Coulter Counter manufactured by Coulter Electronics Inc. Then, the PRP was diluted with the PPP so that the number of platelets in the dilution became 300,000, whereby a PRP solution was prepared.
(§4) 200 μl of this PRP solution and 2 ml of a solution containing a test compound at a given concentration were placed in an aggregation measurement cell and heated at 37° C. for 1 minute. Thereto was added 20 μl of adenosine diphosphate (ADP manufactured by Sigma Co.) or a collagen suspension (Collagen Reagent manufactured by Horm, Hormon-Chemie, Gmbh) to induce aggregation of platelets. The resulting mixture in the cell was measured for change of transmittance, after which a platelets aggregation curve was prepared. Incidentaly, the concentration of ADP or collagen was selected so that the final Concentration became 7.5 μM or 20 μg/ml.
(§5) Using the platelets aggregation curve, there was calculated a maximum aggregation rate (MAR) of platelets using the followoing formula: […]
(§6) wherein a represents a transmittance of the PRP obtained in the same manner; c represents a transmittance of the PPP obtained in the same manner; and b represents a transmittance at the maximum change, of the PRP solution containng the test compound and the aggregation inducer.
(§7) A MAR was also calculated as above, for the control containing no test compound.
(§8) Using the above two MARs, there were calculated platelets aggregation inhibitions (%) of each test compound at various concentrations using the following formula.
(§9) Inhibition=[1-(MAR of PRP solution containing test compound)/(MAR of PRP
(§10) solution containing no test compound)]×100
(§11) Using the above obtained platelets aggregation inhibitions (%) of each test compound at various concentrations, there was calculated a concentration (IC50) of each test compound for 50% platelets aggregation inhibition.

platelets [2] = experiment: Platelets aggregation inhibitory activity (method of Born et al.), ADP-induced, human PRP (Pharmacological Test I); assay type: cell-based, man; conditions: Homo sapiens, Platelet, 7.5 μM ADP, 37° C., read-out: IC50 ADP (50% platelets aggregation inhibition)
Description: as §1, §2, §3, §4, §5, §6, §7, §8, §9, §10, §11

## O=C(CN1CCC(O)CC1)N(CCCCOc1ccc2[nH]c(=O)ccc2c1)CC1CCCCCCC1 [Example 21]
Platelets [1]
  IC50: 3.1 µM
Platelets [2]
  IC50: 4.2 µM

## O=c1ccc2cc(OCCCCN(CCN3CCC(O)CC3)CC3CCCCO3)ccc2[nH]1 (stereo not drawn) [Example 24]
Platelets [1]
  IC50: 14 µM
Platelets [2]
  IC50: 14 µM

## O=c1ccc2cc(OCCCCN(CCN3CCC(O)CC3)C3CCCCC3)ccc2[nH]1 [Example 26]
Platelets [1]
  IC50: 14 µM
Platelets [2]
  IC50: 15 µM

## O=c1ccc2cc(OCCCCCN(CCN3CCC(O)CC3)Cc3ccccc3)ccc2[nH]1 [Example 29]
Platelets [1]
  IC50: 6.3 µM
Platelets [2]
  IC50: 12 µM

## Cc1ccc(CN(CCCCCOc2ccc3[nH]c(=O)ccc3c2)CCN2CCC(O)CC2)cc1 [Example 32]
Platelets [1]
  IC50: 6.1 µM
Platelets [2]
  IC50: 4.8 µM

## N#Cc1ccc(CN(CCCCCOc2ccc3[nH]c(=O)ccc3c2)CCN2CCC(O)CC2)cc1 [Example 33]
Platelets [1]
  IC50: 9.1 µM
Platelets [2]
  IC50: 5.6 µM

## COc1ccc(CN(CCCCCOc2ccc3[nH]c(=O)ccc3c2)CCN2CCC(O)CC2)cc1OC [Example 35]
Platelets [1]
  IC50: 11 µM
Platelets [2]
  IC50: 11 µM

## O=c1ccc2cc(OCCCCCN(CCN3CCC(O)CC3)Cc3ccc(Cl)c(Cl)c3)ccc2[nH]1 [Example 36]
Platelets [1]
  IC50: 20 µM
Platelets [2]
  IC50: 11 µM

## O=c1ccc2cc(OCCCCCN(CCN3CCC(O)CC3)Cc3cccs3)ccc2[nH]1 [Example 40]
Platelets [1]
  IC50: 10 µM
Platelets [2]
  IC50: 13 µM

## O=C(C1CCCCCCC1)N(CCCCOc1ccc2[nH]c(=O)ccc2c1)CCN1CCC(O)CC1 [Example 41]
Platelets [1]
  IC50: 11 µM
Platelets [2]
  IC50: 8.7 µM

## O=C(c1ccccc1)N(CCCCOc1ccc2[nH]c(=O)ccc2c1)CCN1CCC(O)CC1 [Example 42]
Platelets [1]
  IC50: 13 µM
Platelets [2]
  IC50: 20 µM

## O=c1ccc2cc(OCCCCN(CCN3CCOCC3)CC3CCCCCCC3)ccc2[nH]1 [Example 45]
Platelets [1]
  IC50: 25 µM
Platelets [2]
  IC50: 22 µM

## CN(C)C1CCN(CCN(CCCCOc2ccc3[nH]c(=O)ccc3c2)CC2CCCCCCC2)CC1 [Example 46]
Platelets [1]
  IC50: 20 µM
Platelets [2]
  IC50: 20 µM

## O=c1ccc2cc(OCCCCN(CCN3CCC4(CC3)OCCO4)CC3CCCCCCC3)ccc2[nH]1 [Example 47]
Platelets [1]
  IC50: 29 µM
Platelets [2]
  IC50: 25 µM

## O=c1ccc2cc(OCCCCN(CCN3CCC[C@H]3CO)CC3CCCCCCC3)ccc2[nH]1 [Example 49]
Platelets [1]
  IC50: 22 µM
Platelets [2]
  IC50: 6.9 µM

## O=C1CC[C@@H](CO)N1CCN(CCCCCOc1ccc2[nH]c(=O)ccc2c1)Cc1ccccc1 [Example 55]
Platelets [1]
  IC50: 2.6 µM
Platelets [2]
  IC50: 3.7 µM

## O=c1ccc2cc(OCCCCCN(CCN3CCCS3(=O)=O)Cc3ccccc3)ccc2[nH]1 [Example 56]
Platelets [1]
  IC50: 7.7 µM
Platelets [2]
  IC50: 14 µM

## O=c1ccc2cc(OCCCCCN(CCN3CCN(CCO)CC3)Cc3ccccc3)ccc2[nH]1 [Example 57]
Platelets [1]
  IC50: 17 µM
Platelets [2]
  IC50: 18 µM

## O=c1ccc2cc(OCCCCCN(CCN(CCO)CCO)Cc3ccccc3)ccc2[nH]1 [Example 58]
Platelets [1]
  IC50: 4.8 µM
Platelets [2]
  IC50: 3.8 µM

## O=c1ccc2cc(OCCCCN(CCNCCO)CC3CCCCCCC3)ccc2[nH]1 [Example 60]
Platelets [1]
  IC50: 5.3 µM
Platelets [2]
  IC50: 15 µM

## CCN(CC)C(=O)CN(CCCCOc1ccc2[nH]c(=O)ccc2c1)CC1CCCCCCC1 [Example 65]
Platelets [1]
  IC50: 14 µM
Platelets [2]
  IC50: 11 µM

## O=c1ccc2cc(OCCCCCN(CCO)Cc3ccccc3)ccc2[nH]1 [Example 67]
Platelets [1]
  IC50: 2.9 µM
Platelets [2]
  IC50: 4.5 µM

## O=c1ccc2cc(OCCCCCN(CCn3ccnc3)Cc3ccccc3)ccc2[nH]1 [Example 69]
Platelets [1]
  IC50: 9.5 µM
Platelets [2]
  IC50: 15 µM

## CCN1C[C@H](O)C[C@H]1CN(CCCCOc1ccc2[nH]c(=O)ccc2c1)CC1CCCCCCC1 [Example 71]
Platelets [1]
  IC50: 7.4 µM
Platelets [2]
  IC50: 18 µM

## O=C([C@@H]1C[C@@H](O)CN1CCCCOc1ccc2[nH]c(=O)ccc2c1)N1CCCCC1 [Example 74]
Platelets [1]
  IC50: 20 µM
Platelets [2]
  IC50: 17 µM

## CN(C1CCCCC1)S(=O)(=O)CCCCOc1ccc2[nH]c(=O)ccc2c1 [Example 77]
Platelets [1]
  IC50: 4.9 µM
Platelets [2]
  IC50: 2.1 µM

## O=c1ccc2cc(OCCCS(=O)(=O)N(CCN3CCC(O)CC3)CC3CCCCCCC3)ccc2[nH]1 [Example 78]
Platelets [1]
  IC50: 0.38 µM
Platelets [2]
  IC50: 1.4 µM
